Test results reported in PMC2637613 (Basic & clinical pharmacology & toxicology, 2008).
Counter-ions that a name gives are not always drawn.

Columns and labels:
[1] = calculated from mean tissue to plasma AUC ratios; ref [16]; Aravagiri et al. 2002; Aravagiri et al. 1999; Manjunath and Venkateswarlu 2005; Hopenwasser et al. 2004; Sgaragli et al. 1995; Miyazaki et al. 1986; cited from earlier work
BCRP [2] = target: T1, BCRP (Homo sapiens, UniProt Q9UNQ0); experiment: cell-based
T1 sequence (Q9UNQ0 1-655): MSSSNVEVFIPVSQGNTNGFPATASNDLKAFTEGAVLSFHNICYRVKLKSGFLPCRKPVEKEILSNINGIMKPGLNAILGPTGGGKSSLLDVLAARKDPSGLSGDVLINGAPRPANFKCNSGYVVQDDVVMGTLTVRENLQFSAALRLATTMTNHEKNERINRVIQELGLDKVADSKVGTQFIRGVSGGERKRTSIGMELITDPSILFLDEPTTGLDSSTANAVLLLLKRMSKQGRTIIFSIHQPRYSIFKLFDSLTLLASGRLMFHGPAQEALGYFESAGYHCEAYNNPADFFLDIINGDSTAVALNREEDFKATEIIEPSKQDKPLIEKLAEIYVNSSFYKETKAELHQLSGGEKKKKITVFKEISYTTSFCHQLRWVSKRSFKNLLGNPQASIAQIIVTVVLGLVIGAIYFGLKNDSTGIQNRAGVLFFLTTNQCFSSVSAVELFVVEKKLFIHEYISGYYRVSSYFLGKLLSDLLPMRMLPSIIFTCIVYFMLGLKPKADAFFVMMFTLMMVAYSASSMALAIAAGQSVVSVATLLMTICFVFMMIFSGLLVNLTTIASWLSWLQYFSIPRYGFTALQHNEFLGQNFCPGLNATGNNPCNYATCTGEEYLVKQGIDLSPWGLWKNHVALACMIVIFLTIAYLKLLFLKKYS

BCRP [3] = target: T1, BCRP; conditions: estimated liver concentration divided by BCRP IC50 in MCF7/MX100 cells
[4] = read-out: Cmax (mean maximal plasma concentration), patients, ref Aravagiri et al. 1998, Hiemke et al. 2004, Suzuki et al. 2001, Yeung et al. 1993; cited from earlier work

| Structure (SMILES) | Liver:plasma partition ratio [1] | IC50 (BCRP [2]) | Cmax * liver:plasma partition ratio/IC50 (BCRP [3]) | Cmax [4] |
| --- | --- | --- | --- | --- |
| CN(C)CCCN1c2ccccc2Sc2ccc(Cl)cc21 [Chlorpromazine, chlorpromazine hydrochloride] | 97.7 ^9 | 52.2 µM | 0.6 | 300 nM |
| CN1CCN(C2=Nc3cc(Cl)ccc3Nc3ccccc32)CC1 [Clozapine, clozapine] |  | 42 µM |  | 2500 nM |
| O=C(CCCN1CCC(O)(c2ccc(Cl)cc2)CC1)c1ccc(F)cc1 [Haloperidol] |  | > 100 µM |  | 50 nM |
| Cc1cc2c(s1)Nc1ccccc1N=C2N1CCN(C)CC1 [Olanzapine] |  |  |  | 300 nM |
| Cc1nc2n(c(=O)c1CCN1CCC(c3noc4cc(F)ccc34)CC1)CCCC2O (stereo not drawn) [Paliperidone, 9-hydroxy-risperidone] | 67.5 ^5 | 51 µM | 0.5 | 400 nM |
| OCCOCCN1CCN(C2=Nc3ccccc3Sc3ccccc32)CC1 [Quetiapine, quetiapine] | 3.5–8.7 ^8 | 66.1 µM | 0.04–0.10 | 800 nM |
| Cc1nc2n(c(=O)c1CCN1CCC(c3noc4cc(F)ccc34)CC1)CCCC2 [Risperidone] |  |  |  | 400 nM |
